Legend:
rat nNOS = rat nNOS (Rattus norvegicus, UniProt P29476); experiment: hemoglobin capture assay, purified rat nNOS; format: biochemical; details: relative to 21
[1] = mice; background statement on previous lead; cited from earlier work

Row | Structure (SMILES) | fold weaker binding to nNOS than 21 (rat nNOS) [fold] | oral bioavailability and brain permeation [1]
1 | Cl.Cl.Nc1ccc2ccc(COc3cccnc3)cc2n1 [Compound 11, 7-[(Pyridin-3-yloxy)methyl]quinolin-2-amine Dihydrochloride] | ~17 | –
2 | Cl.Cl.Nc1ccc2ccc(CCNCCc3cccc(F)c3)cc2n1 [Compound 1] | – | good oral bioavailability and brain permeation
